Experimental data: patent publication US7582604B2, “Template-fixed peptidomimetics with antibacterial activity” (Polyphor Ltd., priority 2002, dated 2009)
Converted amounts (≈) assume the structure as drawn. Where a SMILES comes first, the peptide text is derived from it. [ ]: non-standard residue; d: D form.

Key:
[1] = tested on: human red blood cells (hRBC); format: cell-based; conditions: red cells of human, 1 h
Description: The peptides were tested for their hemolytic activity against human red blood cells (hRBC). Fresh hRBC were washed three times with phosphate buffered saline (PBS) by centrifugation for 10 min at 2000×g. Peptides at a concentration of 100 μg/ml were incubated with 20% v/v hRBC for 1 hour at 37° C. The final erythrocyte concentration was appr. 0.9×10^9/ml. A value of 0% resp. 100% cell lysis was determined by incubation of the hRBC in the presence of PBS alone and resp. 0.1% Triton X-100 in H2O. The samples were centrifuged and the supernatant was 20 fold diluted in PBS buffer and the optical density (OD) of the sample at […] was measured. The 100% lysis value (OD540H2O) gave an OD of approximately 1.6-2.0. Percent hemolysis was calculated as follows: […]

[2] = tested on: Staphylococcus aureus ATCC 29213; assay: MIC, NCCLS broth microdilution in Mueller-Hinton broth; format: cell-based; conditions: 18-20 hours at 37° C.
Description: (§1) Lyophilized peptides were weighed on a Microbalance (Mettler MT5) and dissolved in sterile water containing 0.01% acetic acid.
(§2) The selective antimicrobial activities of the peptides were determined by the standard NCCLS broth microdilution method (see ref 1, below) examined in sterile 96-wells plates (Nunclon polystyrene microtiter plates) in a total volume of 100 μl. Innocula of the microorganisms were prepared with 0.5 Mcfarland standard and then diluted into Müeller-Hinton (MH^+) broth to give appr. 10^6 colony forming units (CFU)/rnl for bacteria Aliquots (50 μl) of the innocula were added to 50 μl of MH broth containing the peptide in serial twofold dilutions. For the screening of the peptides displaying selectivity, the following microorganisms were used: Escherichia coli (ATCC 25922), Pseudomonas aeruginosa (P. aeruginosa) (ATCC 27853), Staphylococcus aureus (ATCC 29213 and ATCC 25923), and clinical isolates of Pseudomonas aeruginosa (P. aeruginosa) V02 16085 and Acinetobacter (Acinetobacter V04 19905/1, Acinetobacter V12 21143/1 and Acinetobacter V12 21193/1). Antimicrobial activities of the peptides were expressed as the minimal inhibitory concentration (MIC) in μg/ml at which no visible growth was observed after 18-20 hours of incubation of the microtiter plates at 37° C.

[3] = tested on: P. aeruginosa ATCC 278853; format: cell-based, Pseudomonas aeruginosa
Description: as §1, §2
(§3) Salt sensitivity of the peptides was tested by the microtiter serial dilution assay as described above. Only MH broth was replaced by MH broth containing 0.9% NaCl.

[4] = tested on: P. aeruginosa VO216085 (clinical isolate); format: cell-based, Pseudomonas aeruginosa
Description: as §1, §2, §3

[5] = tested on: Escherichia coli ATCC 25922; format: cell-based
Description: as §1, §2, §3

[6] = tested on: Acinetobacter V12 21193/1 (clinical isolate); format: cell-based
Description: as §1, §2, §3

[7] = tested on: Acinetobacter V12 21143/1 (clinical isolate); format: cell-based
Description: as §1, §2, §3

[8] = tested on: Escherichia coli ATCC 43827; format: cell-based

Row | SMILES | Hemolysis at 100 μg/ml (percentage hemolysis) [1] [%] | Minimal inhibitory concentration (MIC) Staphylococcus attreus ATCC 29213 [2] [µg/mL] | Minimal inhibitory concentration (MIC) P. aeruginosa ATCC 278853 [3] [µg/mL] | Minimal inhibitory concentration (MIC) P. aeruginosa VO216085 [4] [µg/mL] | Minimal inhibitory concentration (MIC) Escherichia coli ATCC 25922 [5] [µg/mL] | Minimal inhibitory concentration (MIC) Acinetobacter V12 21193/1 [6] [µg/mL] | Minimal inhibitory concentration (MIC) Acinetobacter V12 21143/1 [7] [µg/mL] | Minimal inhibitory concentration (MIC) Escherichia coli ATCC 43827 [8] [µg/mL]
1 | CC(C)C[C@@H]1NC(=O)[C@H](Cc2c[nH]c3ccccc23)NC(=O)[C@H](CCCNC(=N)N)NC(=O)[C@@H]2CCCN2C(=O)[C@H]2CCCN2C(=O)[C@H](CCCNC(=N)N)NC(=O)[C@H](CC(C)C)NC(=O)[C@H](Cc2ccc(O)cc2)NC(=O)[C@H](CCCCN)NC(=O)[C@H](Cc2c[nH]c3ccccc23)NC(=O)[C@H](CCCNC(=N)N)NC(=O)[C@H](CCCNC(=N)N)NC(=O)[C@H](CCCCN)NC(=O)[C@H](CCCCN)NC1=O [compound 8] (cyclo(RWLKKRRWKYLR[dP]P)) | 0.4 | 100 (≈ 50.9 µM) | – | – | – | – | – | –
2 | CC(C)C[C@@H]1NC(=O)[C@H](Cc2c[nH]c3ccccc23)NC(=O)[C@H](CCCNC(=N)N)NC(=O)[C@H](CCCNC(=N)N)NC(=O)[C@H](CCCCN)NC(=O)[C@H](CCCCN)NC(=O)[C@H](CC(C)C)NC(=O)[C@H](Cc2c[nH]c3ccccc23)NC(=O)[C@H](CCCNC(=N)N)NC(=O)[C@@H]2CCCN2C(=O)[C@H]2CCCN2C(=O)[C@H](CCCNC(=N)N)NC(=O)[C@H](Cc2ccc(O)cc2)NC(=O)[C@H](Cc2ccc(O)cc2)NC1=O [compound 1] (cyclo(RWLKKRRWLYYR[dP]P)) | 0.5 | 25 (≈ 12.5 µM) | 50 (≈ 25 µM) | 50 (≈ 25 µM) | 100 (≈ 50 µM) | 6.2 (≈ 3.1 µM) | 6.2 (≈ 3.1 µM) | 200 (≈ 100 µM)
3 | CC(C)C[C@@H]1NC(=O)[C@H](Cc2c[nH]c3ccccc23)NC(=O)[C@H](CCCNC(=N)N)NC(=O)[C@@H]2CCCN2C(=O)[C@H]2CCCN2C(=O)[C@H](CCCNC(=N)N)NC(=O)[C@H](Cc2ccc(O)cc2)NC(=O)[C@H](Cc2ccc(O)cc2)NC(=O)[C@H](C(C)C)NC(=O)[C@H](Cc2c[nH]c3ccccc23)NC(=O)[C@H](CCCNC(=N)N)NC(=O)[C@H](CCCNC(=N)N)NC(=O)[C@H](CCCCN)NC(=O)[C@H](CCCCN)NC1=O [compound 6] (cyclo(RWLKKRRWVYYR[dP]P)) | 0.5 | 100 (≈ 50.3 µM) | – | – | – | – | – | –
4 | CC(C)C[C@@H]1NC(=O)[C@H](Cc2c[nH]c3ccccc23)NC(=O)[C@H](CCCNC(=N)N)NC(=O)[C@@H]2CCCN2C(=O)[C@H]2CCCN2C(=O)[C@H](CCCNC(=N)N)NC(=O)[C@H](Cc2ccc(O)cc2)NC(=O)[C@H](Cc2ccc(O)cc2)NC(=O)[C@H](CCCCN)NC(=O)[C@H](Cc2c[nH]c3ccccc23)NC(=O)[C@H](CCCNC(=N)N)NC(=O)[C@H](CCCNC(=N)N)NC(=O)[C@H](CCCCN)NC(=O)[C@H](C(C)C)NC1=O [compound 5] (cyclo(RWLVKRRWKYYR[dP]P)) | 0.5 | 100 (≈ 50.3 µM) | – | – | – | – | – | –
5 | CC(C)C[C@@H]1NC(=O)[C@H](Cc2c[nH]c3ccccc23)NC(=O)[C@H](CCCNC(=N)N)NC(=O)[C@@H]2CCCN2C(=O)[C@H]2CCCN2C(=O)[C@H](CCCNC(=N)N)NC(=O)[C@H](C(C)C)NC(=O)[C@H](Cc2ccc(O)cc2)NC(=O)[C@H](CCCCN)NC(=O)[C@H](Cc2c[nH]c3ccccc23)NC(=O)[C@H](CCCNC(=N)N)NC(=O)[C@H](CCCNC(=N)N)NC(=O)[C@H](CCCCN)NC(=O)[C@H](CCCCN)NC1=O [Ex. 2] (cyclo(RWLKKRRWKYVR[dP]P)) | 0.5 | 100 (≈ 51.2 µM) | 9.4 (≈ 4.82 µM) | 6.2 (≈ 3.18 µM) | 100 (≈ 51.2 µM) | 25 (≈ 12.8 µM) | 12.5 (≈ 6.41 µM) | 100 (≈ 51.2 µM)
6 | CC(C)C[C@@H]1NC(=O)[C@H](Cc2c[nH]c3ccccc23)NC(=O)[C@H](CCCNC(=N)N)NC(=O)[C@@H]2CCCN2C(=O)[C@H]2CCCN2C(=O)[C@H](CCCNC(=N)N)NC(=O)[C@H](CCC(N)=O)NC(=O)[C@H](Cc2ccc(O)cc2)NC(=O)[C@H](CCCCN)NC(=O)[C@H](Cc2c[nH]c3ccccc23)NC(=O)[C@H](CCCNC(=N)N)NC(=O)[C@H](CCCNC(=N)N)NC(=O)[C@H](CCCCN)NC(=O)[C@H](CCCCN)NC1=O [compound 7] (cyclo(RWLKKRRWKYQR[dP]P)) | 0.7 | 200 (≈ 101 µM) | – | – | – | – | – | –
7 | CC(C)C[C@@H]1NC(=O)[C@H](Cc2c[nH]c3ccccc23)NC(=O)[C@H](CCCNC(=N)N)NC(=O)[C@@H]2CCCN2C(=O)[C@H]2CCCN2C(=O)[C@H](CCCNC(=N)N)NC(=O)[C@H](Cc2ccc(O)cc2)NC(=O)[C@H]([C@@H](C)O)NC(=O)[C@H](CCCCN)NC(=O)[C@H](Cc2c[nH]c3ccccc23)NC(=O)[C@H](CCCNC(=N)N)NC(=O)[C@H](CCCNC(=N)N)NC(=O)[C@H](CCCCN)NC(=O)[C@H](CCCCN)NC1=O [compound 3] (cyclo(RWLKKRRWKTYR[dP]P)) | 1.5 | 100 (≈ 51.2 µM) | 200 (≈ 102 µM) | 9.4 (≈ 4.81 µM) | 200 (≈ 102 µM) | 100 (≈ 51.2 µM) | 25 (≈ 12.8 µM) | 200 (≈ 102 µM)
8 | CC(C)C[C@@H]1NC(=O)[C@H](Cc2c[nH]c3ccccc23)NC(=O)[C@H](CCCNC(=N)N)NC(=O)[C@@H]2CCCN2C(=O)[C@H]2CCCN2C(=O)[C@H](CCCNC(=N)N)NC(=O)[C@H](Cc2ccc(O)cc2)NC(=O)[C@H](CCC(N)=O)NC(=O)[C@H](CCCCN)NC(=O)[C@H](Cc2c[nH]c3ccccc23)NC(=O)[C@H](CCCNC(=N)N)NC(=O)[C@H](CCCNC(=N)N)NC(=O)[C@H](CCCCN)NC(=O)[C@H](CCCCN)NC1=O [compound 4] (cyclo(RWLKKRRWKQYR[dP]P)) | 0.6 | 100 (≈ 50.5 µM) | 6.2 (≈ 3.13 µM) | 3.1 (≈ 1.57 µM) | 100 (≈ 50.5 µM) | 25 (≈ 12.6 µM) | 12.5 (≈ 6.31 µM) | 200 (≈ 101 µM)
